In PMC11111691, “Cystine-knot peptide inhibitors of HTRA1 bind to a cryptic pocket within the active site region” (Nature Communications, 2024):
“Also recorded” adds a separate entry of the source. Positions of bridges follow the written chain, without caps; N, C: chain ends. Residues, ends and D or L forms follow the SMILES beside them.

Experiments:
MDCK monolayer = assay: MDCK trans-well cell permeability assay; assay type: in vitro ADME, canine; conditions: MDCK trans-well, apical to basolateral, up to 50 µM, 16 h, mass spectrometry
Method: (§4) We carried out a cell permeability study using a MDCK trans-well assay, which is commonly
(§5) used at Genentech for permeability screening of compounds . This assay measures the flux of test
(§6) compound (Papp, apparent permeability) across a MDCK monolayer from the apical to the
(§7) basolateral compartment over a 16 h period.
sensitive mass spectrometry method .
(§8) 10x10-6 cm/s and compounds with Papp values of <1x10-6 cm/s are considered to be of low
Protocol of permeability assay:
(§9) Experiments were carried out as described (Chen et al. Evaluating the utility of canine Mdr1 knockout
(§10) Madin-Darby canine kidney I cells in permeability screening and efflux substrate determination, Mol
(§11) Cells were seeded in 96-well Corning Transwell plates (PET membrane, 1 µm pore size) at 75,000 cells
(§12) per well and grown in DMEM media supplemented with 10% FBS, 1% pen-strep and 1x Glutamax at
(§13) 37C, 5% CO2 for 48 h to ensure monolayer formation. Stock solutions of the three CKPs 1B3, 1D3-ENI
(§14) and 1G10-ENI were diluted in Hank's Balanced Salt solution containing 25 mM HEPES, pH 7.4 and 25
(§15) µM of the monolayer integrity marker lucifer yellow. CKPs at a concentration of 50 µM were added to
(§16) the apical (donor) chamber and the CKP the apparent permeability (Papp) was determined by quantifying
(§17) the amount of CKP in the basolateral (receiver) chamber after 16 h incubation at 37C, 5% CO2. The
(§18) samples from the basolateral chamber were supplemented with the experiment analytical internal standard
(§19) (100 nM propranolol in 50% ACN:50% water with 0.1% formic acid) and then injected in a Sciex Zeno
(§20) TOF 7600 mass spectrometer using TOF/MS mode.

[1] = MDCK trans-well cell permeability assay; assay type: in vitro ADME, canine; conditions: dog, MDCK trans-well (protocol of Chen et al. 2018, canine Mdr1 knockout MDCK I), apical to basolateral, 50 µM CKP, 37C, 5% CO2, HBSS 25 mM HEPES pH 7.4, TOF/MS read-out, n = 4-6, read-out: Papp (apparent permeability)
Method: as §4, §5, §6, §7
sensitive mass spectrometry method .
as §8
Protocol of permeability assay:
as §9, §10, §11, §12, §13, §14, §15, §16, §17, §18, §19, §20

C32 melanoma cells = assay: Cell toxicity assay (CellTiter-Glo), C32; assay type: cell-based, human; conditions: for Viability reduction, C32 cells, 72 h: 50 µM CKP; for Cell viability, C32 melanoma cells: 0.6-50 µM CKP, 24 h and 72 h, at least three independent experiments
Method: (§1) reduction at the highest CKP concentration of 50 µM after 72 h (see results below). The absence of cell toxicity is likely due to the inability of the CKPs to penetrate cell membranes, which was experimentally determined in response to another reviewer. Due to space limitations we have not […]
(§2) Protocol of cell toxicity assay (Figure above):
(§3) HeLa cells or C32 melanoma cells were passaged in DMEM media supplemented with 10% FBS, 1% pen-strep and 1x Glutamax using standard culture conditions (5% CO2, 90% humidity at 37°C). At approximately 95% confluence cells were trypsinized, seeded onto 96-well plates (Corning) at 10,000 cells/well and grown for 24 h. Cells were then incubated with the CKPs 3B3, 1D3-ENI and 1G10-ENI (0, 0.6, 1.9, 5.6, 16.7 and 50 µM) at 37°C for 24 h or for 72h. As a positive control we used staurosporine (STS; 1µM). Cell viability was measured using the CellTiter-Glo luminescent cell viability assay (Promega) on an Envision Multilabel plate reader. Average of at least three independent experiments ± S.D. were plotted in Prism 10. Two-way ANOVA was performed on each dataset and compared to no drug samples and no significant viability reductions were observed, except for some treatments at the […]

HeLa cells = assay: Cell toxicity assay (CellTiter-Glo), HeLa; assay type: cell-based; conditions: 0.6-50 µM CKP, 24 h and 72 h, at least three independent experiments
Method: as §1, §2, §3

CKP stability assay = assay type: physicochemical; conditions: chemical stability, PBS containing 0.15% DMSO, 0.3 mM (~1 mg/ml), 37 °C, LC-MS, HPLC UV 220 nm peak area normalized to DMSO peak, two independent experiments, preliminary
Method: The CKPs 1G10 and 1G10-ENI were incubated in PBS containing 0.15% DMSO at a concentration of 0.3 mM (~1 mg/ml) at 37 °C for 30 days. Samples from two independently performed experiments were frozen at −20 °C until further analysis. Thawed samples were diluted in H2O and injected into LC-MS (Agilent). From the HPLC UV trace (at 220 nm) the CKP peak area was normalized to the DMSO peak area from the same run. The values obtained from multiple HPLC runs were averaged and shown as dot plot.

Row | SMILES | Cell permeability in the MDCK cell assay (MDCK monolayer) | Papp A→B at 16 h, 50 µM [1] [×10⁻⁶ cm/s] | Viability reduction, C32 cells, 72 h (C32 melanoma cells) [%] | Cell viability, C32 melanoma cells (C32 melanoma cells) | Cell viability, HeLa cells (HeLa cells) | Stability: intact peptide after 30 days (CKP stability assay)
1 | CC[C@H](C)[C@H](N)C(=O)N[C@@H](Cc1c[nH]c2ccccc12)C(=O)N1CCC[C@H]1C(=O)N[C@@H](CC(=O)O)C(=O)N1CCC[C@H]1C(=O)N[C@H](C(=O)N[C@H]1CSSC[C@@H]2NC(=O)[C@H](Cc3ccccc3)NC(=O)[C@H](Cc3c[nH]c4ccccc34)NC(=O)[C@H](C)NC(=O)CNC(=O)[C@H](CO)NC(=O)[C@@H]3CSSC[C@@H](C(=O)NCC(=O)N[C@@H](Cc4c[nH]c5ccccc45)C(=O)NCC(=O)N[C@H](C(=O)N[C@@H](CCCNC(=N)N)C(N)=O)[C@@H](C)CC)NC(=O)[C@H](CO)NC(=O)[C@H](Cc4c[nH]c5ccccc45)NC(=O)[C@H](CC(N)=O)NC(=O)[C@H](C)NC(=O)[C@H](Cc4ccc(O)cc4)NC(=O)[C@H](Cc4ccc(O)cc4)NC(=O)[C@H](CSSC[C@H](NC(=O)[C@@H]4CCCN4C(=O)[C@H](CCCCN)NC(=O)[C@H](CC(N)=O)NC1=O)C(=O)N[C@@H](CCC(=O)O)C(=O)N[C@@H]([C@@H](C)O)C(=O)N[C@@H](Cc1c[nH]cn1)C(=O)N[C@@H](CC(=O)O)C(=O)N[C@@H](CC(=O)O)C(=O)N3)NC(=O)[C@H]([C@@H](C)O)NC(=O)[C@H](CCC(N)=O)NC2=O)[C@@H](C)CC [1D3-ENI] (H-IWPDPICNKPCETHDDCSGAWFCQTCYYANWSCGWGIR-NH2; disulfide 7-23, 11-26, 17-33) | no detectable cell permeability | < 0.003 | 13 | did not appreciably affect cell viability | did not appreciably affect cell viability | 
2 | CC[C@H](C)[C@H](NC(=O)CNC(=O)[C@H](Cc1c[nH]c2ccccc12)NC(=O)CNC(=O)[C@@H]1CSSC[C@@H]2NC(=O)[C@H](CC(=O)O)NC(=O)[C@H](CC(=O)O)NC(=O)[C@H](Cc3c[nH]cn3)NC(=O)[C@H]([C@@H](C)O)NC(=O)[C@H](CCC(=O)O)NC(=O)[C@@H]3CSSC[C@H](NC(=O)[C@H]([C@@H](C)O)NC(=O)[C@H](CCC(N)=O)NC(=O)[C@H](CSSC[C@H](NC(=O)[C@@H](NC(=O)[C@@H]4CCCN4C(=O)[C@H](CC(=O)O)NC(=O)[C@@H](NC(=O)[C@@H]4CCCN4C(=O)[C@@H](N)Cc4ccc(O)cc4)C(C)C)[C@@H](C)CC)C(=O)N[C@@H](CC(N)=O)C(=O)N[C@@H](CCCCN)C(=O)N4CCC[C@H]4C(=O)N3)NC(=O)[C@H](Cc3ccccc3)NC(=O)[C@H](Cc3c[nH]c4ccccc34)NC(=O)[C@H](C)NC(=O)CNC(=O)[C@H](CO)NC2=O)C(=O)N[C@@H](Cc2ccc(O)cc2)C(=O)N[C@@H](Cc2ccc(O)cc2)C(=O)N[C@@H](C)C(=O)N[C@@H](CC(N)=O)C(=O)N[C@@H](Cc2c[nH]c3ccccc23)C(=O)N[C@@H](CO)C(=O)N1)C(=O)N[C@@H](CCCNC(=N)N)C(N)=O [1G10-ENI] (H-YPVDPICNKPCETHDDCSGAWFCQTCYYANWSCGWGIR-NH2; disulfide 7-23, 11-26, 17-33) | no detectable cell permeability | < 0.003 | 13 | did not appreciably affect cell viability | did not appreciably affect cell viability | no change in peptide mass at 30 days; also recorded: highly stable
